Where only a bound is given, the exact number is not on record here.

The first test addresses T1, TANK-2 enzyme (Homo sapiens, UniProt Q9H2K2).
T1 construct: made in house
T1 sequence (Q9H2K2 1-1166): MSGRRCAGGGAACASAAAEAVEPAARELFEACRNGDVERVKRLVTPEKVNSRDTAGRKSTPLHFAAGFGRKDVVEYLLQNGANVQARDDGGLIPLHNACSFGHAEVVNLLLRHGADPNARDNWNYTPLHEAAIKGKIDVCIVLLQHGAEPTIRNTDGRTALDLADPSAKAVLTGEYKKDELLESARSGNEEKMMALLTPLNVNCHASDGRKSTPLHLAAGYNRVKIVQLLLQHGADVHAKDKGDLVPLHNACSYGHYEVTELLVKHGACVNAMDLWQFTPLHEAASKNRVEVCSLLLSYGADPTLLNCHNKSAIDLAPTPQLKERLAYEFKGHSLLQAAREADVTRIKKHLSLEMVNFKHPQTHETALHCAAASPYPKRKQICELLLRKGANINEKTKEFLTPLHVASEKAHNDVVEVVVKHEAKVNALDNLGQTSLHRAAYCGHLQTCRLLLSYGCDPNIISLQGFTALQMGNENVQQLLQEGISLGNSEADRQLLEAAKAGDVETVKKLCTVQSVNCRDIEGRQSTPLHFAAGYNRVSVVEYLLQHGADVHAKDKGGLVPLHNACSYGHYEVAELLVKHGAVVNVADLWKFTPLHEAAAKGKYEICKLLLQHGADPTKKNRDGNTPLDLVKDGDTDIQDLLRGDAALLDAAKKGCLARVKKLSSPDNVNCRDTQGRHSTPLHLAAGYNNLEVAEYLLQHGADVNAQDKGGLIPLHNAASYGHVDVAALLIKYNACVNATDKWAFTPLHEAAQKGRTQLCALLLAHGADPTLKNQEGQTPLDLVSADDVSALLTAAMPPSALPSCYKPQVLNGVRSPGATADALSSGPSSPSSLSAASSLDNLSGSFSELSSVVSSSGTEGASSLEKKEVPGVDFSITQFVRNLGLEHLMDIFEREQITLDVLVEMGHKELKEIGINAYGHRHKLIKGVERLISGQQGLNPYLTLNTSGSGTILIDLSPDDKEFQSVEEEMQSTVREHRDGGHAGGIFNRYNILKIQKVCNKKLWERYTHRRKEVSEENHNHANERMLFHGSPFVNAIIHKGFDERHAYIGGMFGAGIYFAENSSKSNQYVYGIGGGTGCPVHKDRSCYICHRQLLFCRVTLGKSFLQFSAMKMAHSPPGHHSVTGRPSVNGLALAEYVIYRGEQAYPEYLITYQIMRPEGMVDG
Put plainly: In vitro scintillation proximity assay (SPA) for TANK-2 inhibitory activity. The test is classed as biochemical.
Settings: not given
How it is done: In Vitro Scintillation Proximity Assay (SPA) for TANK-2 Inhibitory Activity
Compounds of the present invention were tested in an in vitro assay based on SPA technology with Ni Flash plates (96 or 384 well).
In principle, the assay relies upon SPA technology for the detection of auto-poly(ADP-ribosyl)ation of TANK-2 protein using [^3H]-nicotinamide adenine dinucleotide ([^3H]-NAD^+) as ADP-ribosyl donor.
A stock solution of [^3H]-NAD^+/NAD was made by adding 64.6 μl of [^3H]-NAD^+ (0.1 mCi/ml, supplier: Perkin Elmer) and 46.7 μl NAD-stock (10.7 mM, stored at −20° C., supplier Roche) to 1888.7 μl assay buffer (60 mM Tris/HCl, pH 7.4; 0.9 mM DTT; 6 mM MgCl2). The TANK-2 enzyme was produced as described in EP1238063. 60 μl of assay buffer, together with 1 μl of compound in DMSO, 20 μl of [^3H]-NAD^+/NAD and 20 μl of TANK-2 enzyme (final concentration 6 μg/ml) was added per well into a 96-well Ni-coated flash plate (Perkin Elmer). After incubation of the mixture for 120 min. at room temperature, the reaction was terminated by adding 60 μl of stopsolution (42.6 mg NAD in 6 ml H2O). The plates were covered with a plate sealer and placed in a TopCountNXT™ (Packard) for scintillation counting. Values were expressed as counts per minute (cpm). For each experiment, controls (containing TANK-2 enzyme and DMSO without compound), a blank incubation (containing DMSO but no TANK-2 enzyme or compound) and samples (containing TANK-2 enzyme and compound dissolved in DMSO) were run in parallel. All compounds tested were dissolved and eventually further diluted in DMSO. In first instance, compounds were tested at a concentration of 10^−5M. […] In each test, the blank value was subtracted from both the control and the sample values. The control sample represented maximal TANK-2 enzyme activity. For each sample, the amount of cpm was expressed as a percentage of the mean cpm value of the controls. When appropriate, IC50-values (concentration of the drug, needed to reduce the TANK-2 enzyme activity to 50% of the control) were computed using linear interpolation between the experimental points just above and below the 50% level. Herein the effects of test compounds are expressed as pIC50 (the negative log value of the IC50-value). As reference compounds, 3-aminobenzamide and 4-amino-1,8-naphthalimide were included to validate the SPA assay. Herein the assay was described using 96-well plates. In the assay using 384-well plates the same final concentrations were used and volumes were adapted.
On the technique in general: SPA uses beads or plates that emit light when radiolabelled molecules are held near them.
Take `O=c1[nH]c(=O)n(CCCN2CCC(c3c[nH]c4ccccc34)CC2)c2ccccc12` [Compound 3]: the IC50 was > 10 µM.

Still in this test, the particulars now being: auto-poly(ADP-ribosyl)ation, [3H]-NAD+; 96-well results if available, otherwise 384-well; read-out: in vitro SPA assay TANK-2 pIC50 (converted).
`O=c1[nH]c(=O)n(C2CCN(CCCn3c(=O)[nH]c4ccccc43)CC2)c2ccccc12` [Compound 5]: the IC50 is 7.57 µM.

With `O=C(c1ccc(F)cc1)C1CCN(CCCn2c(=O)[nH]c(=O)c3ccccc32)CC1` [Compound 11, 1-[3-[4-(4-fluorobenzoyl)-1-piperidinyl]propyl]-2,4-(1H,3H)-quinazolinedione], the IC50 is > 10 µM.

In the case of `O=C(CCCN1CCC(n2c(=O)[nH]c(=O)c3ccccc32)CC1)c1ccc(F)cc1` [Compound 2], the IC50 was > 10 µM.

Take `O=c1[nH]c(=O)n(CCN2CCC(O)(c3ccc(Cl)cc3)CC2)c2ccccc12` [Compound 6]: the IC50 is 1.38 µM.

Regarding `O=c1[nH]c(=O)n(C2CCNCC2)c2ccccc12` [Compound 1], the IC50 is > 10 µM.

Regarding `O=C(c1ccc(F)cc1)C1CCN(CCn2c(=O)[nH]c(=O)c3ccccc32)CC1` [Compound 10, 1-[2-[4-(4-fluorobenzoyl)-1-piperidinyl]ethyl]-2,4-(1H,3H)-quinazolinedione], the IC50 was 7.19 µM.

`O=c1[nH]c(=O)n(C2CCN(CC(O)C3CCc4ccccc4O3)CC2)c2ccccc12` (stereo in doubt) [Compound 9, 1-[1-[(2S)-2-[(2R)-3,4-dihydro-2H-1-benzopyran-2-yl]-2-hydroxyethyl]-4-piperidinyl]-2,4(1H,3H)-quinazolinedione]: the IC50 is > 10 µM.

Regarding `O=c1[nH]c(=O)n(CCCN2CCC(O)(c3ccc(Cl)cc3)CC2)c2ccccc12` [Compound 7], the IC50 was > 10 µM.

Values taken from US9255080B2, “Quinazolinedione derivatives as PARP inhibitors” (Janssen Pharmaceutica NV, priority 2004, dated 2016).
